Laboratory results: patent publication US20100298141A1, “SUBSTITUTED PYRIDINE N-OXIDE HERBICIDES” (E. I. DU PONT DE NEMOURS AND COMPANY, priority 2007, published 2010)

Legend:
[1] = system: giant foxtail; assay: Test C pre-/postemergence test; assay type: in vivo, Setaria faberii; conditions: Postemergence; for Plant response rating, Foxtail, Giant: scale 0 to 100, 0 no effect, 100 complete control
Text: (§1) Seeds of plant species selected from blackgrass (Alopecurus myosuroides), downy brome (Bromus tectorum), green foxtail (Setaria viridis), Italian ryegrass (Lolium multiflorum), wheat (Triticum aestivum), wild oat (Avena fatua), catchweed bedstraw (Galium aparine), Russian thistle (Salsola kali), […] (Cynodon dactylon), Surinam grass (Brachiaria decumbens), cocklebur (Xanthium strumarium), corn (Zea mays), crabgrass (Digitaria sanguinalis), woolly cupgrass (Eriochloa villosa), giant foxtail (Setaria faberii), Goosegrass (Eleusin indica), johnsongrass (Sorghum halepense), kochia (Kochia scoparia), lambsquarters (Chenopodium album), morningglory (Ipomoea coccinea), eastern black nightshade (Solanum ptycanthum), yellow nutsedge (Cyperus esculentus), pigweed (Amaranthus retroflexus), common ragweed (Ambrosia elation), soybean (Glycine max), common (oilseed) sunflower (Helianthus annuus), and velvetleaf (Abutilon theophrasti) were planted and treated preemergence with test chemicals formulated in a non-phytotoxic solvent mixture which included a surfactant. At the same time, plants selected from these crop and weed species and also winter barley (Hordeum vulgare), canarygrass (Phalaris minor), and chickweed (Stellaria media) were treated with postemergence applications of some of the test chemicals formulated in the same manner. Plants ranged in height from 2 to 18 cm (1- to 4-leaf stage) for postemergence treatments. […] At time of treatment, test pots were flooded to 3 cm above the soil surface, treated by application of test compounds directly to the paddy water, and then maintained at that water depth for the duration of the test. […] A dash (-) response means no test result.

[2] = system: crabgrass; assay: Test C pre-/postemergence test; assay type: in vivo, Digitaria sanguinalis; conditions: Postemergence; for Plant response rating, Crabgrass, Large: scale 0 to 100, 0 no effect, 100 complete control
Text: as §1

[3] = system: duck salad; assay: Test C flooded paddy test; assay type: in vivo, Heteranthera limosa; conditions: Flood
Summary of the method: (§2)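 Visual injury ratings against untreated controls, taken 13 to 15 days after compound was added to paddy water standing 3 cm above the soil.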

[4] = system: lambsquarters; assay: Test C pre-/postemergence test; assay type: in vivo, Chenopodium album; conditions: Postemergence; for Plant response rating, Lambsquarters: scale 0 to 100, 0 no effect, 100 complete control
Text: as §1

[5] = system: velvetleaf; assay: Test A pre-/postemergence greenhouse test; assay type: in vivo, Abutilon theophrasti; conditions: for Velvetleaf plant response rating: 0 to 100 scale
Summary of the method: (§3)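 Untreated controls served as the reference for visual injury ratings taken about ten days after spraying. The non-phytotoxic solvent/surfactant formulation was applied preemergence to seeded loam and sand and postemergence to plants two to ten cm high.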

[6] = system: johnsongrass; assay: Test C pre-/postemergence test; assay type: in vivo, Sorghum halepense; conditions: Postemergence; for Plant response rating, Johnsongrass: scale 0 to 100, 0 no effect, 100 complete control
Text: as §1

[7] = system: redroot pigweed; assay: Test A pre-/postemergence greenhouse test; assay type: in vivo, Amaranthus retroflexus; conditions: for Pigweed plant response rating: 0 to 100 scale
Summary of the method: as §3

[8] = system: Surinam grass; assay: Test C pre-/postemergence test; assay type: in vivo, Brachiaria decumbens; conditions: Postemergence; for Plant response rating, Surinam Grass: scale 0 to 100, 0 no effect, 100 complete control
Text: as §1

[9] = system: common ragweed; assay: Test C pre-/postemergence test; assay type: in vivo, Ambrosia elation; conditions: Postemergence; for Plant response rating, Ragweed: scale 0 to 100, 0 no effect, 100 complete control
Text: as §1

[10] = system: cocklebur; assay: Test C pre-/postemergence test; assay type: in vivo, Xanthium strumarium; conditions: Postemergence; for Plant response rating, Cocklebur: scale 0 to 100, 0 no effect, 100 complete control
Text: as §1

[11] = system: downy brome; assay: Test C pre-/postemergence test; assay type: in vivo, Bromus tectorum; conditions: Postemergence; for Plant response rating, Bromegrass, Downy: scale 0 to 100, 0 no effect, 100 complete control
Text: as §1

[12] = system: green foxtail; assay: Test C pre-/postemergence test; assay type: in vivo, Setaria viridis; conditions: Postemergence; for Plant response rating, Foxtail, Green: scale 0 to 100, 0 no effect, 100 complete control
Text: as §1

[13] = system: velvetleaf; assay: Test C pre-/postemergence test; assay type: in vivo, Abutilon theophrasti; conditions: Postemergence; for Plant response rating, Velvetleaf: scale 0 to 100, 0 no effect, 100 complete control
Text: as §1

[14] = system: kochia; assay: Test C pre-/postemergence test; assay type: in vivo, Kochia scoparia; conditions: Postemergence; for Plant response rating, Kochia: scale 0 to 100, 0 no effect, 100 complete control
Text: as §1

[15] = system: barnyardgrass; assay: Test A pre-/postemergence greenhouse test; assay type: in vivo, Echinochloa crus-galli; conditions: for Barnyardgrass plant response rating: 0 to 100 scale
Summary of the method: as §3

[16] = system: wild oat; assay: Test C pre-/postemergence test; assay type: in vivo, Avena fatua; conditions: Postemergence; for Plant response rating, Oat, Wild: scale 0 to 100, 0 no effect, 100 complete control
Text: as §1

[17] = system: rice; assay: Test C flooded paddy test; assay type: in vivo, Oryza sativa; conditions: Flood
Summary of the method: as §2

[18] = 31 g ai/ha, scale 0 to 100 (0 no effect, 100 complete control)
[19] = 62 g ai/ha, scale 0 to 100, 0 no effect, 100 complete control, 13 to 15 days
[20] = 125 g ai/ha, scale 0 to 100, 0 no effect, 100 complete control, 13 to 15 days
[21] = 250 g ai/ha, scale 0 to 100, 0 no effect, 100 complete control, 13 to 15 days
[22] = Postemergence, 125 g ai/ha, 0 is no effect, 100 is complete control
[23] = Postemergence, 500 g ai/ha, 0 is no effect, 100 is complete control
[24] = Preemergence, 125 g ai/ha, 0 no effect, 100 complete control
[25] = Preemergence, 500 g ai/ha, 0 to 100 scale where 0 is no effect and 100 is complete control

CC(c1c(C(F)(F)F)nn(C)c1Cl)S(=O)(=O)c1ccc(Cl)c[n+]1[O-] (racemic) [Compound 40]
Plant response rating (0 to 100), Foxtail, Giant ([1]; 31 g ai/ha): 0 | Plant response rating, Foxtail, Giant ([1]; 62 g ai/ha): 0 | Plant response rating, Foxtail, Giant ([1]; 125 g ai/ha): 0 | Plant response rating, Foxtail, Giant ([1]; 250 g ai/ha): 0 | Plant response rating (0 to 100), Crabgrass, Large ([2]; 31 g ai/ha): 0 | Plant response rating, Crabgrass, Large ([2]; 62 g ai/ha): 0 | Plant response rating, Crabgrass, Large ([2]; 125 g ai/ha): 0 | Plant response rating, Crabgrass, Large ([2]; 250 g ai/ha): 0 | Plant response rating, Ducksalad [3, 18]: 20 | Plant response rating, Ducksalad [3, 19]: 45 | Plant response rating, Ducksalad [3, 20]: 80 | Plant response rating, Ducksalad [3, 21]: 90 | Plant response rating (0 to 100), Lambsquarters ([4]; 31 g ai/ha): 0 | Plant response rating, Lambsquarters ([4]; 62 g ai/ha): 0 | Plant response rating, Lambsquarters ([4]; 125 g ai/ha): 0 | Plant response rating, Lambsquarters ([4]; 250 g ai/ha): 0 | Velvetleaf plant response rating [5, 22]: 50 | Velvetleaf plant response rating [5, 23]: 60 | Velvetleaf plant response rating [5, 24]: 0 | Plant response rating, Velvetleaf [5, 25]: 50 | Plant response rating (0 to 100), Johnsongrass ([6]; 31 g ai/ha): 0 | Plant response rating, Johnsongrass ([6]; 62 g ai/ha): 20 | Plant response rating, Johnsongrass ([6]; 125 g ai/ha): 20 | Plant response rating, Johnsongrass ([6]; 250 g ai/ha): 60 | Pigweed plant response rating [7, 22]: 30 | Pigweed plant response rating [7, 23]: 60 | Pigweed plant response rating [7, 24]: 60 | Plant response rating, Pigweed [7, 25]: 100 | Plant response rating (0 to 100), Surinam Grass ([8]; 31 g ai/ha): 0 | Plant response rating (0 to 100), Surinam Grass ([8]; 62 g ai/ha): 0 | Plant response rating, Surinam Grass ([8]; 125 g ai/ha): 0 | Plant response rating, Surinam Grass ([8]; 250 g ai/ha): 0 | Plant response rating (0 to 100), Ragweed ([9]; 31 g ai/ha): 0 | Plant response rating (0 to 100), Ragweed ([9]; 62 g ai/ha): 0 | Plant response rating, Ragweed ([9]; 125 g ai/ha): 0 | Plant response rating, Ragweed ([9]; 250 g ai/ha): 5 | Plant response rating (0 to 100), Cocklebur ([10]; 31 g ai/ha): 0 | Plant response rating, Cocklebur ([10]; 62 g ai/ha): 0 | Plant response rating, Cocklebur ([10]; 125 g ai/ha): 0 | Plant response rating, Cocklebur ([10]; 250 g ai/ha): 0 | Plant response rating (0 to 100), Bromegrass, Downy ([11]; 31 g ai/ha): 0 | Plant response rating, Bromegrass, Downy ([11]; 62 g ai/ha): 0 | Plant response rating, Bromegrass, Downy ([11]; 125 g ai/ha): 0 | Plant response rating, Bromegrass, Downy ([11]; 250 g ai/ha): 0 | Plant response rating (0 to 100), Foxtail, Green ([12]; 31 g ai/ha): 0 | Plant response rating, Foxtail, Green ([12]; 62 g ai/ha): 0 | Plant response rating, Foxtail, Green ([12]; 125 g ai/ha): 0 | Plant response rating, Foxtail, Green ([12]; 250 g ai/ha): 5 | Plant response rating (0 to 100), Velvetleaf ([13]; 31 g ai/ha): 0 | Plant response rating (0 to 100), Velvetleaf ([13]; 62 g ai/ha): 0 | Plant response rating, Velvetleaf ([13]; 125 g ai/ha): 0 | Plant response rating, Velvetleaf ([13]; 250 g ai/ha): 0 | Plant response rating (0 to 100), Kochia ([14]; 31 g ai/ha): 0 | Plant response rating, Kochia ([14]; 62 g ai/ha): 0 | Plant response rating, Kochia ([14]; 125 g ai/ha): 0 | Plant response rating, Kochia ([14]; 250 g ai/ha): 0 | Barnyardgrass plant response rating [15, 22]: 80 | Barnyardgrass plant response rating [15, 23]: 90 | Barnyardgrass plant response rating [15, 24]: 70 | Plant response rating, Barnyardgrass [15, 25]: 100 | Plant response rating (0 to 100), Oat, Wild ([16]; 31 g ai/ha): 0 | Plant response rating, Oat, Wild ([16]; 62 g ai/ha): 0 | Plant response rating, Oat, Wild ([16]; 125 g ai/ha): 0 | Plant response rating, Oat, Wild ([16]; 250 g ai/ha): 5 | Plant response rating, Rice [17, 18]: 0 | Plant response rating, Rice [17, 19]: 15 | Plant response rating, Rice [17, 20]: 60 | Plant response rating, Rice [17, 21]: 65
